Here are results for 22 molecules from patent US20130029962A1, “Substituted Heteroaromatic Pyrazole-Containing Carboxamide and Urea Compounds as Vanilloid Receptor Ligands” (Gruenenthal GmbH, priority 2011, published 2013).

The target in one test is T1, vanilloid receptor 1 (VR1/TRPV1 receptor) (Homo sapiens, UniProt Q8NER1).
T1 construct: expressed in transfected cells; host or cells: CHO K1
T1 sequence (Q8NER1 whole entry): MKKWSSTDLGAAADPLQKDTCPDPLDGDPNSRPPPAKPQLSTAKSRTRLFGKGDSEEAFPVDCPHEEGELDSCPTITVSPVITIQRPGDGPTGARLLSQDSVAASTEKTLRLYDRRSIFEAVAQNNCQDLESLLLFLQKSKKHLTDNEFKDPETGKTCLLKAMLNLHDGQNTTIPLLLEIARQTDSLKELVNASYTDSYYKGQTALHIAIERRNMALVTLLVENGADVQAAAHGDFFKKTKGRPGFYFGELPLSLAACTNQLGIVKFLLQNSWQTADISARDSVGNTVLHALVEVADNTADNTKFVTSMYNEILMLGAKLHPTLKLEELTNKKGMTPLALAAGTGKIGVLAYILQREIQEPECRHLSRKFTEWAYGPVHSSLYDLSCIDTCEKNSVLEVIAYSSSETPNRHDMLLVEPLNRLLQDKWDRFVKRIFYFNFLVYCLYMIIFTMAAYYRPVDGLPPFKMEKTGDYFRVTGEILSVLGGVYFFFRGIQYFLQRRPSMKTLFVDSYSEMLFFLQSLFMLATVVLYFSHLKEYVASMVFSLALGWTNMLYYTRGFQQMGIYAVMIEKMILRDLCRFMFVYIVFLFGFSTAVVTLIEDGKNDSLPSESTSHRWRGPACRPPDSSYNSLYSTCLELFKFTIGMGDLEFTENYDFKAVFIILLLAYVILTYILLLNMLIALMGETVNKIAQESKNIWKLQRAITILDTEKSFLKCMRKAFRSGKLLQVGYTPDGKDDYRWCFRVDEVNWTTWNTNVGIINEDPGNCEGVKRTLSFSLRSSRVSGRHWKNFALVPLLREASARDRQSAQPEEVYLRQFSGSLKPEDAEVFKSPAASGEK
The test is described as follows: Functional testing on the vanilloid receptor 1 (VR1/TRPV1): FLIPR Ca2+ influx assay, displacement of capsaicin. The test is classed as cell-based, human being. Set-up: key to mode of action at VR1/TRPV1 (AG, pAG, NE), Cap: AG=agonist; NE=no effect; pAG=partial agonist. Conditions: 5 μM compound; capsaicin (Cap); human being. On the procedure: Furthermore, preference may be given to compounds according to the invention that cause a 50 percent displacement of capsaicin, which is present at a concentration of 100 nM, in a FLIPR assay with CHO K1 cells which were transfected with the human VR1 gene at a concentration of less than 2,000 nM, preferably less than 1,000 nM, particularly preferably less than 300 nM, most particularly preferably less than 100 nM, even more preferably less than 75 nM, additionally preferably less than 50 nM, most preferably less than 10 nM.
In the process, the Ca^2+ influx is quantified in the FLIPR assay with the aid of a Ca^2+-sensitive dye (type Fluo-4, Molecular Probes Europe BV, Leiden, the Netherlands) in a fluorescent imaging plate reader (FLIPR, Molecular Devices, Sunnyvale, USA), as described hereinafter. […]
The number of cells in the suspension is set to 3×10^5 per mL and 150 μL of this suspension are in each case introduced into a recess in the cell culture plates coated as described hereinbefore. In the incubator the plates are left for two to three days at 37° C., 5% by volume of CO2 and 95% relative humidity. Subsequently, the cells are loaded with 2 μM of Fluo-4 and 0.01% by volume of Pluronic F127 (Molecular Probes Europe BV, Leiden, the Netherlands) in HBSS buffer (Hank's buffered saline solution, Gibco Invitrogen GmbH, Karlsruhe, Germany) for 30 min at 37° C., washed 3 times with HBSS buffer and after further incubation for 15 minutes at room temperature used for Ca^2+ measurement in a FLIPR assay. The Ca^2+-dependent fluorescence is in this case measured before and after the addition of substances (λex=488 nm, λem=540 nm). Quantification is carried out by measuring the highest fluorescence intensity (FC, fluorescence counts) over time.
The FLIPR protocol consists of 2 substance additions. First the compounds to be tested (10 μM) are pipetted onto the cells and the Ca^2+ influx is compared with the control (capsaicin 10 μM). This provides the result in % activation based on the Ca^2+ signal after the addition of 10 μM of capsaicin (CP). After 5 minutes' incubation, 100 nM of capsaicin are applied and the Ca^2+ influx is also determined. Desensitising agonists and antagonists lead to suppression of the Ca^2+ influx. The % inhibition is calculated compared to the maximum achievable inhibition with 10 μM of capsazepine. Triple analyses (n=3) are carried out and repeated in at least 3 independent experiments (N=4).
Starting from the percentage displacement caused by different concentrations of the compounds to be tested of general formula I, IC50 inhibitory concentrations which cause a 50-percent displacement of capsaicin were calculated. Ki values for the test substances were obtained by conversion by means of the Cheng-Prusoff equation (Cheng, Prusoff; Biochem. Pharmacol. 22, 3099-3108, 1973).
The affinity of the compounds according to the invention for the vanilloid receptor 1 (VR1/TRPV1 receptor) was determined as described above (pharmacological method I).
`CC(C(=O)NCc1cc(C(F)(F)F)nn1-c1cccc(Cl)c1)c1ccc(C(=O)Nc2ccccc2)nc1` (centres unmarked) [Example 57]: the “inhibition (as a percentage) at the concentration after @, Cap” value turned out to be 60%@5 μM.

The test is the same for the next values; noted with them: 5 μM compound; capsaicin (Cap); human being; read-out: inhibition (as a percentage) at the concentration after @, Cap.
For the molecule `O=C(NCc1cc(C(F)(F)F)nn1-c1cccc(F)c1)Nc1ccc(CO)nc1` [Example 33, 1-((1-(3-fluorophenyl)-3-(trifluoromethyl)-1H-pyrazol-5-yl)methyl)-3-(6-(hydroxymethyl)pyridin-3-yl)urea], the inhibition at 5 µM turned out to be 41%.

Regarding `COc1ccc(-n2nc(C(F)(F)F)cc2CNC(=O)Nc2ccc(CO)nc2)cc1C` [Example 37, 1-(6-(hydroxymethyl)pyridin-3-yl)-3-((1-(4-methoxy-3-methylphenyl)-3-(trifluoromethyl)-1H-pyrazol-5-yl)methyl)urea], the inhibition at 5 µM was determined as 41%.

In the case of `O=C(NCc1cc(C(F)(F)F)nn1-c1cccc(Cl)c1)Nc1ccc(CCO)nc1` [Example 52, 1-((1-(3-chlorophenyl)-3-(trifluoromethyl)-1H-pyrazol-5-yl)methyl)-3-(6-(2-hydroxyethyl)pyridin-3-yl)urea], the inhibition at 5 µM worked out at 45%.

As to `CC(C(=O)NCc1cc(C(C)(C)C)nn1-c1cccc(Cl)c1)c1ccc(C(N)=O)nc1` (centres unmarked) [Example 56, 5-(1-((3-tert-butyl-1-(3-chlorophenyl)-1H-pyrazol-5-yl)methylamino)-1-oxopropan-2-yl)picolinamide], the inhibition at 5 µM stood at 77%.

As to `CC(C(=O)NCc1cc(C(F)(F)F)nn1-c1cccc(Cl)c1)c1ccc(C(=O)Nc2ccc(C(F)(F)F)cc2)nc1` (centres unmarked) [Example 59, 5-(1-((1-(3-chlorophenyl)-3-(trifluoromethyl)-1H-pyrazol-5-yl)methylamino)-1-oxopropan-2-yl)-N-(4-(trifluoromethyl)phenyl)picolinamide], the inhibition at 5 µM worked out at 24%.

For `CC(C(=O)NCc1cc(C(F)(F)F)nn1-c1cccc(Cl)c1)c1cnc(C(=O)Nc2ccccc2)nc1` (centres unmarked) [Example 62, 5-(1-((1-(3-chlorophenyl)-3-(trifluoromethyl)-1H-pyrazol-5-yl)methylamino)-1-oxopropan-2-yl)-N-phenylpyrimidine-2-carboxamide], the inhibition at 5 µM stood at 53%.

Still in this test, the particulars now being: capsaicin (Cap) as stimulus; Ki from IC50 by Cheng-Prusoff; read-out: (f) Ki (human being) [nM] Cap.
As for `CC(C(=O)NCc1cc(C(F)(F)F)nn1-c1cccc(Cl)c1)c1ccc(CO)nc1` (centres unmarked) [Example 30, N-((1-(3-chlorophenyl)-3-(trifluoromethyl)-1H-pyrazol-5-yl)methyl)-2-(6-(hydroxymethyl)pyridin-3-yl)propanamide], the Ki amounted to 1 nM.

For `O=C(NCc1cc(C(F)(F)F)nn1-c1cccc(Cl)c1)Nc1ccc(CO)nc1` [Example 32, 1-((1-(3-chlorophenyl)-3-(trifluoromethyl)-1H-pyrazol-5-yl)methyl)-3-(6-(hydroxymethyl)pyridin-3-yl)urea], the Ki came out at 32 nM.

With `Cc1cccc(-n2nc(C(F)(F)F)cc2CNC(=O)Nc2ccc(CO)nc2)c1` [Example 36, 1-(6-(hydroxymethyl)pyridin-3-yl)-3-((1-m-tolyl-3-(trifluoromethyl)-1H-pyrazol-5-yl)methyl)urea], the Ki came to 101 nM.

As to `O=C(NCc1cc(C(F)(F)F)nn1-c1cccc(Cl)c1)Nc1cnc(CO)c(F)c1` [Example 50, 1-((1-(3-chlorophenyl)-3-(trifluoromethyl)-1H-pyrazol-5-yl)methyl)-3-(5-fluoro-6-(hydroxymethyl)pyridin-3-yl)urea], the Ki was determined as 24 nM.

With `CC(C(=O)NCc1cc(C(F)(F)F)nn1-c1cccc(Cl)c1)c1ccc(CCO)nc1` (centres unmarked) [Example 51, N-((1-(3-chlorophenyl)-3-(trifluoromethyl)-1H-pyrazol-5-yl)methyl)-2-(6-(2-hydroxyethyl)pyridin-3-yl)propanamide], the Ki was determined as 8 nM.

Turning to `CC(C(=O)NCc1cc(C(F)(F)F)nn1-c1cccc(Cl)c1)c1ccc(COCCO)nc1` (centres unmarked) [Example 53, N-((1-(3-chlorophenyl)-3-(trifluoromethyl)-1H-pyrazol-5-yl)methyl)-2-(6-((2-hydroxyethoxy)methyl)pyridin-3-yl)propanamide], the Ki turned out to be 44 nM.

Consider `CC(C(=O)NCc1cc(C(F)(F)F)nn1-c1cccc(Cl)c1)c1ccc(C(N)=O)nc1` (centres unmarked) [Example 55, 5-(1-((1-(3-chlorophenyl)-3-(trifluoromethyl)-1H-pyrazol-5-yl)methylamino)-1-oxopropan-2-yl)picolinamide], for which the Ki is 23 nM.

On to `CC(C(=O)NCc1cc(C(F)(F)F)nn1-c1cccc(Cl)c1)c1ccc(C(=O)Nc2ccc(F)cc2)nc1` (centres unmarked) [Example 58, 5-(1-((1-(3-chlorophenyl)-3-(trifluoromethyl)-1H-pyrazol-5-yl)methylamino)-1-oxopropan-2-yl)-N-(4-fluorophenyl)picolinamide], for which the Ki is 5 nM.

Turning to `CC(C(=O)NCc1cc(C(C)(C)C)nn1-c1cccc(Cl)c1)c1ccc(C(=O)Nc2ccc(F)cc2)nc1` (centres unmarked) [Example 60, 5-(1-((3-tert-butyl-1-(3-chlorophenyl)-1H-pyrazol-5-yl)methylamino)-1-oxopropan-2-yl)-N-(4-fluorophenyl)picolinamide], the Ki was 4 nM.

On to `CC(C(=O)NCc1cc(C(C)(C)C)nn1-c1cccc(Cl)c1)c1ccc(C(=O)Nc2ccc(C(F)(F)F)cc2)nc1` (centres unmarked) [Example 61, 5-(1-((3-tert-butyl-1-(3-chlorophenyl)-1H-pyrazol-5-yl)methylamino)-1-oxopropan-2-yl)-N-(4-(trifluoromethyl)phenyl)picolinamide], for which the inhibition constant (Ki) stood at 45 nM.

For `CC(C(=O)NCc1cc(C(F)(F)F)nn1-c1cccc(Cl)c1)c1cnc(C(=O)Nc2ccc(F)cc2)nc1` (centres unmarked) [Example 63, 5-(1-((1-(3-chlorophenyl)-3-(trifluoromethyl)-1H-pyrazol-5-yl)methylamino)-1-oxopropan-2-yl)-N-(4-fluorophenyl)pyrimidine-2-carboxamide], the Ki was found to be 6 nM.

As to `CC(C(=O)NCc1cc(C(F)(F)F)nn1-c1cccc(Cl)c1)c1cnc(C(=O)Nc2ccc(C(F)(F)F)cc2)nc1` (centres unmarked) [Example 64, 5-(1-((1-(3-chlorophenyl)-3-(trifluoromethyl)-1H-pyrazol-5-yl)methylamino)-1-oxopropan-2-yl)-N-(4-(trifluoromethyl)phenyl)pyrimidine-2-carboxamide], the Ki amounted to 61 nM.

Turning to `CC(C(=O)NCc1cc(C(C)(C)C)nn1-c1cccc(Cl)c1)c1cnc(C(=O)Nc2ccccc2)nc1` (centres unmarked) [Example 65, 5-(1-((3-tert-butyl-1-(3-chlorophenyl)-1H-pyrazol-5-yl)methylamino)-1-oxopropan-2-yl)-N-phenylpyrimidine-2-carboxamide], the Ki was 70 nM.

The same test, now with this note: capsaicin (Cap); human being.
On to `COc1ccc(-n2nc(C(F)(F)F)cc2CNC(=O)Nc2ccc(CO)nc2)cc1F` [Example 35, 1-((1-(3-fluoro-4-methoxyphenyl)-3-(trifluoromethyl)-1H-pyrazol-5-yl)methyl)-3-(6-(hydroxymethyl)pyridin-3-yl)urea], for which the “mode of action at VR1/TRPV1 (AG, pAG, NE), Cap” value (“mode of action at VR1/TRPV1” below) is recorded as “NE”.

As for `O=C(NCc1cc(C(F)(F)F)nn1-c1cccc(F)c1)Nc1ccc(C2CCOCC2)nc1` [Example 54, 1-((1-(3-fluorophenyl)-3-(trifluoromethyl)-1H-pyrazol-5-yl)methyl)-3-(6-(tetrahydro-2H-pyran-4-yl)pyridin-3-yl)urea], the “mode of action at VR1/TRPV1” value is given as “NE”.

`CC(C(=O)NCc1cc(C(C)(C)C)nn1-c1cccc(Cl)c1)c1ccc(C(N)=O)nc1` (centres unmarked) [Example 56, 5-(1-((3-tert-butyl-1-(3-chlorophenyl)-1H-pyrazol-5-yl)methylamino)-1-oxopropan-2-yl)picolinamide]: the “mode of action at VR1/TRPV1” value is given as “AG”.
